The text below walks through data of paper PMC10610379, “Epidrugs as Promising Tools to Eliminate Plasmodium falciparum Artemisinin-Resistant and Quiescent Parasites” (Pharmaceutics, 2023).

Where two headings read alike, the source gives them in different places. Bounds are passed on as bounds.

Data set [1] concerns Plasmodium falciparum F32-ART (artemisinin-resistant strain). Put plainly: Standard chemosensitivity assay (SYBR Green I), F32-ART. As to conditions: for IC50: Plasmodium falciparum, read-out: Antiplasmodial Activity: IC50, F32-ART; for Selectivity Index CC50/IC50: ratio cytotoxicity (mammalian cell type of the CC50)/antiplasmodial activity on F32-ART. Type of data set: cell-based. The procedure:
(§1) They differ by eight mutations in seven genes (PF3D7_0110400, PF3D7_1343700, PF3D7_0213400, PF3D7_1115700, PF3D7_1302100, PF3D7_1459600, PF3D7_1464500) among them the M476I mutation on the kelch13 gene. F32-ART and F32-TEM strains have RSA^0–3 h values up to 12% and less than 0.1%, respectively. […] Both strains were cultured, in the same conditions, according to the Trager and Jensen protocol with modifications. Briefly, parasites were cultivated in RPMI-1640 medium (Biowest) at 2% hematocrit in human red blood cells and 5% human serum (EFS, French Blood Bank) under 5% CO2 in a humid atmosphere at 37 °C.
(§2) The antimalarial activities of the compounds were evaluated on both strains. […] Antimalarial activities were determined with the SYBR Green I method. Each drug concentration was tested in triplicate. The parasites were incubated with the drugs for 48 h. Plates were read on a BioTek FLX800 Microplate Fluorescence Reader (Bio-Tek instruments, Winooski, VT, USA) (λexcitation = 485 nm, λemission = 528 nm). Control parasite culture (i.e., RPMI with 0.5% DMSO) was referred to as 100% growth. IC50 and IC90 values were determined using GraphPad Prism version 7.05 (GraphPad Software, San Diego, CA, USA). Results were the mean of 3 independent experiments. When it is relevant, statistical significance between results obtained with both parasite strains was determined by a Mann–Whitney test using GraphPad Prism version 7.05.

The test system of data set [2] is Plasmodium falciparum F32-TEM (artemisinin-sensitive twin line). Put plainly: Standard chemosensitivity assay (SYBR Green I), F32-TEM. The data set is classed as cell-based. As to conditions: Plasmodium falciparum, read-out: Antiplasmodial Activity: IC50, F32-TEM. On the procedure: as §1, §2
The next data set relates to human mesenchymal stem. Details: method as in PMID 30237855. As to conditions: data from literature ref 53, read-out: Cytotoxicity: CC50 (human mesenchymal stem); cited from earlier work.
For a further data set, the system named is GM15850. On the set-up: method as in PMID 18953021. As to conditions: data from literature ref 46, read-out: Cytotoxicity: CC50 (GM15850); cited from earlier work.
The next data set concerns HeLa. The settings on record: cited from earlier work.
A further data set relates to NOMO1. The settings on record: read-out: Cytotoxicity: CC50 (NOMO1), data from literature ref 51; cited from earlier work.
The next data set concerns HL-60. The settings on record: read-out: Cytotoxicity: CC50 (HL-60), data from literature ref 49; cited from earlier work.
For the next data set, the system named is monocytes. On the set-up: method as in PMID 27091512. As to conditions: data from literature ref 47, read-out: Cytotoxicity: CC50 (monocytes); cited from earlier work.
A further data set deals with NIH3T3. On the set-up: method as in PMID 28644986. The settings on record: data from literature ref 50, read-out: Cytotoxicity: CC50 (NIH3T3); cited from earlier work.
Data set [3] concerns ART-resistant parasites F32-ART at the quiescent stage. Put plainly: Quiescent-stage Survival Assay (QSA), 48-h exposure. The data set is classed as cell-based, Plasmodium falciparum. The procedure: The sensitivity of the ART-resistant parasites F32-ART at the quiescent stage towards the different molecules was determined using the QSA (Quiescent-stage Survival Assay), as previously described.
Epidrugs were tested at their IC90 values. In the present study, quiescence was induced using 3 µM of ART or 700 nM of DHA [28]. Thus, D-sorbitol synchronized ring-stage parasites at 3% parasitemia and 2% hematocrit (5 mL of culture per well in 6-well plates) were first exposed to 6 h of ART or DHA to induce quiescence and then to 48 h of the combination “ART or DHA + compound to be tested”. The combinations “ART 6 h/ART 48 h” or “DHA 6 h/DHA 48 h” were used as controls. The compounds were evaluated, in parallel, on proliferating parasites, i.e., without any pre-treatment. After drug exposure, parasite cultures were washed with 40 mL of RPMI-1640 medium and cultured in drug-free conditions supplemented with 10% human serum in new wells. The parasitemia for each condition was then microscopically monitored every 2 days. Culture media were renewed twice a week and 25 µL of fresh red blood cells were added once a week. Obtained data were used to perform Kaplan–Meier survival analyses considering censored data. The outcome was defined as the day when parasite cultures reached the initial parasitemia (3%) and data were considered as censored if no parasite recrudescence was observed during the 30-day experiment timeframe. When relevant, statistical significance between results obtained for the conditions “ART/ART” and “ART/ART + compound to be tested” or “DHA/DHA” and “DHA/DHA + compound to be tested” was determined by a Log Rank (Mantel Cox) test using GraphPad Prism version 7.05. For the best compounds targeting histones, in order to compare western blots data, modified QSAs were carried out by comparing “DHA 6 h/DHA 24 h” versus “DHA 6 h/DHA + compound to be tested 24 h”.

The test system of a further data set is H4IIErat. The settings on record: read-out: Cytotoxicity: CC50 (H4IIErat), data from literature ref 54; cited from earlier work.
Data set [4] is described as follows: Cytotoxicity evaluation by MTT assay. The data set is classed as cell-based. As to conditions: monkey, Vero cells, * mean of 2 experiments. On the procedure: The cytotoxicity of all newly synthesized compounds was evaluated on the Vero cell lines (isolated from monkey kidney cells, gift from the Faculty of Pharmacy, Toulouse, France) by MTT assay according to Mosmann with slight modifications. Briefly, cells in MEM medium supplemented with 10% fetal calf serum, 2 mM L-glutamine, antibiotics (100 U/mL penicillin and 100 µg/mL streptomycin), and NEAA 1X, were seeded in 96-well plates. After a 24-h incubation at 37 °C and 5% CO2 in a humidified atmosphere, compounds were added with concentrations ranging from 5 nM to 50 μM in duplicate. […] The security index was calculated as the ratio of cytotoxicity/antiplasmodial activity.
For orientation: Tetrazolium assays rely on reduction of a dye to a coloured formazan, in cell work by metabolically active cells.

Data set [5] relates to P. falciparum strains F32-ART and F32-TEM. Put plainly: Standard chemosensitivity assay, both strains. The data set is classed as cell-based. The settings on record: Plasmodium falciparum, F32, read-out: Antiplasmodial activity IC50. The procedure: as §2
[6] abbreviates: F32-ART, 48 h incubation, SYBR Green I, mean ± SEM of 3 experiments (* mean of 2).
Where [7] appears, read: F32-TEM, 48 h incubation, SYBR Green I, mean ± SEM of 3 experiments (* mean of 2).

What is called IC50 is the concentration that inhibits the measured activity by half. In the case of `Clc1ccc(N/N=C(\c2ccccc2)c2ccccn2)nc1` [JIB-04], the IC50 is 0.56 ± 0.08 µM in [1] (setting [6]) and 0.94 ± 0.03 µM in [2] (setting [7]). In addition, in data set [1], the “Selectivity Index CC50/IC50” value is listed as above 18. Further, the CC50 with human mesenchymal stem is above 10 µM.
As for `Cc1ccc(NC(=O)CCCCCC(=O)Cc2ccccc2N)cc1` [TC-H 106], the IC50 in data set [1] (setting [6]) and in data set [2] (setting [7]) was above 10 µM each time. In [1], the “Selectivity Index CC50/IC50” value was below 0.6. In the data set on GM15850, the CC50 is 6.3 µM.
With `NNc1nncc2ccccc12` [Hydralazine], the IC50 in data set [1] (setting [6]) and in data set [2] (setting [7]) was above 10 µM throughout. In addition, the “Selectivity Index CC50/IC50” value in [1] is on record as below 4. Moreover, in the data set on HeLa, the CC50 is 40 µM.
On to `CCCCCCCc1ccc(CCc2cccc(O)c2C(=O)O)cc1` [MG149], for which the 50% inhibitory concentration (IC50) in [1] (F32, 48 h) was above 10 µM; in [2] (F32, 48 h), above 10 µM. Besides, the CC50 in the data set on NOMO1 is 51 µM.
For `CN1C(=O)[C@@]23C[C@]4([C@]56C[C@@]78SS[C@@](CO)(C(=O)N7[C@H]5Nc5ccccc56)N(C)C8=O)c5ccccc5N[C@@H]4N2C(=O)[C@]1(CO)SS3` [Chaetocin], the IC50 in data set [1] (setting [6]) is 0.64 ± 0.16 µM; in [2] (setting [7]) it was 0.73 ± 0.09 µM. Besides, the “Selectivity Index CC50/IC50” value in [1] amounted to 0.2. Also, the CC50 with HL-60 is 0.13 µM.
As for `Cn1cc(/C=C/C(=O)c2cccc(F)c2)cc1/C=C/C(=O)NO` [MC 1568], the IC50 in [1] (setting [6]) and in [2] (setting [7]) was above 10 µM in each case. Besides, the “Selectivity Index CC50/IC50” value in [1] was below 1. In the data set on monocytes, the CC50 was 10 µM.
`C#CCN(Cc1ccc2nc(N)[nH]c(=O)c2c1)c1ccc(C(=O)N[C@@H](CCC(=O)O)C(=O)O)cc1` [CB3717]: the IC50 in [1] (setting [6]) and in data set [2] (setting [7]) was 1 µM throughout. Also, the “Selectivity Index CC50/IC50” value in data set [1] is on record as above 20. Further, the CC50 in the data set with NIH3T3 was above 20 µM.
In the case of `Cc1cc(Nc2ccc(NC(=O)c3ccc(Nc4ccnc5ccccc45)cc3)cc2)nc(N)n1` [SGI-1027], the results for the IC50 in data set [1] (setting [6]) and in data set [2] (setting [7]) were 0.063 ± 0.013 µM and 0.054 ± 0.022 µM, respectively. Besides, the “Selectivity Index CC50/IC50” value in data set [1] is above 790. Besides, the “Delay in parasite recrudescence time (difference between median recrudescence times), ART/ART + compound vs ART/ART” value in data set [3] (quiescence induced with ART 3 µM 6 h, then 48 h ART + compound at its IC90) is recorded as 8 days. Moreover, the “Delay in recrudescence time, DHA/DHA + compound vs DHA/DHA” value in data set [3] (quiescence induced with DHA 700 nM 6 h, then 48 h DHA + compound at its IC90) is given as at least 6 days. For the same molecule, in the data set with H4IIErat, the CC50 was above 50 µM.
Regarding `Cc1ncsc1-c1ccc(CNC(=O)[C@@H]2C[C@@H](O)CN2C(=O)[C@@H](NC(=O)COCCOCCOCCNC(=O)C[C@@H]2N=C(c3ccc(Cl)cc3)c3c(sc(C)c3C)-n3c(C)nnc32)C(C)(C)C)cc1` [MZ1], the figures for the IC50 in data set [1] (setting [6]), in data set [2] (setting [7]) and in data set [5] were 1.7 µM, 1.3 µM and 1.3 to 1.7 µM, respectively. The “Selectivity Index CC50/IC50” value in data set [1] is above 30. In addition, the CC50 in [4] is above 50 µM.
